What was measured:
hearing power [1] = assay: clinical test: change of hearing power after administration (case histories, audiograms); type: in vivo, patients
Experimental: (§1) Among patients who came into the hospital during the period of from September 1976 to September 1977 while complaining of deafness or tinnitus, those meeting the following conditions were chosen.
(§2) In principle, a mixture of 4 mg of butoxybenzylhyoscyamine bromide with 2o % glucose was intravenously injected at first, and then, two capsules, each containing 5 mg of butoxybenzylhyoscyamine bromide, was administered 3-times per day (namely, 6 capsules being administered as a whole per day). The administration of capsules was conducted for one week.
(§3) • (a) The standard autiometry (125 - 8ooo Hz, air and bone condition) was carried out before the injection. • (b) The same test was conducted 3o minutes after the injection. In patients complaining of tinnitus, the change of the degree of tinnitus was examined. • (c) The audiometry was carried out on the 7th day from the start of the oral administration. If the patients felt changes of hearing power or tinnitus during this period, the audiometry was appropriately conducted. • (d) During the oral administraion period of 7 days, desease conditions such as (1) hearing power (2) tinnitus, (3) other ear symptoms and (4) side effects were recorded in examination cards.
(§4) • 1. Change of hearing power just after injection (3o minutes: • With respect to 5o patients, the audiometry was carried out just after the intravenous injection of butoxybenzylhyoscyamine bromide (3o minutes after the injection) to obtain results shown in table 2. Sounds of 25o Hz, 1000 Hz and 8000 Hz were chosen as typical instances of sounds of the low-tone, medium-tone and high-tone regions, respectively, and changes of the hearing power to these sounds were examined. The change within a range of + 5 dB was judged as "no change" and the change exceeding 5 dB was judged as "improvement" or "worsening". [formula] As will be apparent from the results shown in table 2, the highest improvement was 2o dB (1ooo Hz) but in many cases, the improvement was up to 15 dB. The improvement was higher in the order of the low-tone region (18%), the high-tone region (12 %) and the mediom-tone region (8%) and the average improvement of the hearing power after the intravenous injection was about 13 %. • 2. Improvement of Tinnitus: With respect to 41 patients complaining of tinnitus, the change of degree of tinnitus was examined after one week's oral administration to obtain results shown belof in table 3. [formula] As will be apparent from the results shown in table 3, the agent was effective in 15 patients (36%), though the agent of the present invention was ineffective in 24 patients (59%) or the agent worsened the state in 2 patients (5%). • 3. Change of hearing power after administration: Changes of the hearing power were examined during a period of 1 year and three months at longest after one week's administration. With respect to cases where high improving effects were attained, the clinical history will be described.

hearing power [2] = assay: clinical test: audiometry just after intravenous injection (30 minutes); type: in vivo; conditions: 5o patients
Experimental: as §1
(§5) Butoxybenzylhyoscyamine bromide was administered to 74 patients meeting the above conditions.
as §2, §3, §4

tinnitus = assay: clinical test: change of degree of tinnitus after one week's oral administration; type: in vivo; conditions: 41 patients complaining of tinnitus
Experimental: as §1, §5, §2, §3, §4

male and female rats = assay: chronic toxicity, continuous administration for 25 weeks; type: in vivo
Experimental: Toxicity of butoxybenzylhyoscyamine bromide in detail: • (A) The acute toxicity, LDSo(mg/kg), is as shown in table 1 [formula] • (B) The compound was administered in an amount of 3.2, 8.0 or 2o mg/kg per day to male and female rats conti- nously during 25 weeks to determine the chronic toxicity.

[3] = rats, 3.2, 8.0 or 2o mg/kg per day

CCCCOc1ccc(C[N+]2(C)C3CCC2CC(OC(=O)C(CO)c2ccccc2)C3)cc1 (stereo not shown) [butoxybenzylhyoscyamine bromide, N-(p-n-butoxybenzyl)-hyoscyaminium bromide]
tinnitus, Case 2 (hearing power [1]; person with the improvement of the hearing power): Tinnitus disappeared
hearing loss, Case 6 (hearing power [1]; person, 3o minutes after intravenous injection): the hearing loss was extremely reduced
hearing power after second 1 week oral administration, Case 4 (hearing power [1]; person, at termination of the second oral administration): further improved in the low-tone region
hearing power restored on the average, Case 4 (hearing power [1]; person, fixed perceptive deafness, one intravenous injection then 1 week oral, after 3 weeks): about 1o
hearing power restored at maximum, Case 4 (hearing power [1]; person, fixed perceptive deafness, one intravenous injection then 1 week oral, after 3 weeks, 2 KHz): 2o
change of hearing power, Case 3 (hearing power [1]; person, fixed sudden deafness of right ear, repeated intravenous injection): remarkably improved in the low-tone region
hearing loss after about 1 month, Case 2 (hearing power [1]; person, left ear, hearing loss about 5o dB before, one week oral administration with S.G.B.): 1o
hearing power after one week's administration, Case 2 (hearing power [1]; person, left ear, hearing loss about 5o dB before, oral administration while conducting S.G.B.): returned to the level equal to the level at the first examination
change of hearing power, Case 5 (hearing power [1]; person, perceptive deafness of left ear, oral, 3 weeks, 6 capsules per day): gradually recovered but was not returned to the normal level
change of hearing power, Case 1 (hearing power [1]; person, perceptive deafness, six capsules of 5 mg per day): the improvement was observed in the low-tone region after the administration
improvement of hearing power in many cases (hearing power [2]; 3o minutes after intravenous injection of 4 mg): up to 15 dB
highest improvement of hearing power (hearing power [2]; 3o minutes after intravenous injection of 4 mg, 1ooo Hz): 2o
improvement, low-tone region (hearing power [2]; 3o minutes after intravenous injection, 25o Hz, change exceeding 5 dB judged as improvement): 18%
improvement, medium-tone region (hearing power [2]; 3o minutes after intravenous injection, 1000 Hz, change exceeding 5 dB judged as improvement): 8%
improvement, high-tone region (hearing power [2]; 3o minutes after intravenous injection, 8000 Hz, change exceeding 5 dB judged as improvement): 12%
average improvement of the hearing power after the intravenous injection (hearing power [2]; average of low-, medium- and high-tone regions): about 13%
tinnitus: effective, number of patients (tinnitus): 15 patients
tinnitus: effective, share of patients (tinnitus): 36%
tinnitus: ineffective, number of patients (tinnitus): 24 patients
tinnitus: ineffective, share of patients (tinnitus): 59%
tinnitus: state worsened, number of patients (tinnitus): 2 patients
tinnitus: state worsened, share of patients (tinnitus): 5%
change in organs (chronic toxicity) (male and female rats; [3]): no substantial change was observed in any organ
tests of blood and urine (chronic toxicity) (male and female rats; [3]): particular changes or disorders were not observed at all
changes observed (chronic toxicity) (male and female rats; rats, daily administered amount 2o mg/kg): inactive motion, mydriasis, control of increase of the body weight, storage of a small quantity of abdominal dropsy and formation of false membranes on the liver and spleen
